Assays:
[1] = Intrinsic clearance in mouse liver microsomes at 1 uM in presence of NADPH generating system assessed per mg protein by LC-MS/MS analysis; assay type: ADME, Microsome; conditions: read-out: CLH
[2] = target: T1, CYP2C8 (Homo sapiens, UniProt P10632); experiment: Inhibition of CYP2C8 in human liver microsomes using paclitaxel as substrate at 10 uM in presence of NADPH generating system incubated for 10 mins; assay type: ADME; conditions: probe paclitaxel
T1 sequence (P10632 whole entry): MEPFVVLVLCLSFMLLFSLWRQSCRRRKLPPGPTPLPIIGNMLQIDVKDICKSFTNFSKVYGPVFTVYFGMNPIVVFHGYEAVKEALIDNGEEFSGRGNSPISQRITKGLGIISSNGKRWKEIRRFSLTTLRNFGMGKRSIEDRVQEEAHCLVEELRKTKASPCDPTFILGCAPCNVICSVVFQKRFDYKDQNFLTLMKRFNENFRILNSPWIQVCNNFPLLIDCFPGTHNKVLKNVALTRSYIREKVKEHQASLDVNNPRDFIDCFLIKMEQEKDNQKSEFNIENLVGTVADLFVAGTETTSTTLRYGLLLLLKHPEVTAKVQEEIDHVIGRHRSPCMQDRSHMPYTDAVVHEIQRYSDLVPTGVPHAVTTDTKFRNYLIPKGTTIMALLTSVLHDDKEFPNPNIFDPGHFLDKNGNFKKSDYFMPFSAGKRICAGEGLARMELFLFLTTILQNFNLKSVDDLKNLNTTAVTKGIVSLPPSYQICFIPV

[3] = target: CYP2C9 (Homo sapiens, UniProt P11712); experiment: Inhibition of CYP2C9 in human liver microsomes using tolbutamide as substrate at 10 uM in presence of NADPH generating system incubated for 10 mins; assay type: ADME; conditions: probe tolbutamide
[4] = target: CYP2D6 (Homo sapiens, UniProt P10635); experiment: Inhibition of CYP2D6 in human liver microsomes using dextromethorphan as substrate at 10 uM in presence of NADPH generating system incubated for 10 mins; assay type: ADME; conditions: probe dextromethorphan
Sequence of CYP2D6 (P10635 whole entry): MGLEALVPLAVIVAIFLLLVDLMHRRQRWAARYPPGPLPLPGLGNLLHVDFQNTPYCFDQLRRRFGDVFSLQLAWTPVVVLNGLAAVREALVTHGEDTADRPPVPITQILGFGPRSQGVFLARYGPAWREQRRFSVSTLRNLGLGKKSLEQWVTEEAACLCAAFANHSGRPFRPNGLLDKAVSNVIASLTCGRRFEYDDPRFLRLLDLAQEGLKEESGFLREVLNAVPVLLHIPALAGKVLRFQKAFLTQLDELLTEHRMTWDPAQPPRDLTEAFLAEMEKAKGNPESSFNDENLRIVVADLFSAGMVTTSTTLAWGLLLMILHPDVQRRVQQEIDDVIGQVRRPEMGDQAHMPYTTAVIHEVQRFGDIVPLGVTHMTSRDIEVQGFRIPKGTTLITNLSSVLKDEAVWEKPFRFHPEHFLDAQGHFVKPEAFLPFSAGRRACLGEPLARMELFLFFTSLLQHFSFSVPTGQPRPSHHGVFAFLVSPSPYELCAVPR

[5] = MRT in non-fasted ICR mouse at 0.5 mg/kg, iv by LC-MS/MS analysis; assay type: ADME, organism-based; conditions: in vivo
[6] = Cmax in non-fasted ICR mouse at 5 mg/kg, po by LC-MS/MS analysis; assay type: ADME, organism-based; parameters: route oral, dose 5 mg/kg; conditions: in vivo
[7] = MRT in non-fasted ICR mouse at 5 mg/kg, po by LC-MS/MS analysis; assay type: ADME, organism-based; conditions: in vivo
[8] = Ratio of unbound drug concentration in brain to plasma of non-fasted ICR mouse at 30 mg/kg, po measured after 1 hr by LC-MS/MS analysis; assay type: ADME, organism-based; conditions: read-out: K(p,uu,brain)
[9] = target: hERG (Homo sapiens, UniProt Q12809); experiment: Inhibition of hERG expressed in CHO-K1 cells at 30 uM by automated whole cell patch clamp assay; assay type: toxicity, cell-based; conditions: CHO-K1 cells expressing hERG
Sequence of hERG (Q12809 whole entry): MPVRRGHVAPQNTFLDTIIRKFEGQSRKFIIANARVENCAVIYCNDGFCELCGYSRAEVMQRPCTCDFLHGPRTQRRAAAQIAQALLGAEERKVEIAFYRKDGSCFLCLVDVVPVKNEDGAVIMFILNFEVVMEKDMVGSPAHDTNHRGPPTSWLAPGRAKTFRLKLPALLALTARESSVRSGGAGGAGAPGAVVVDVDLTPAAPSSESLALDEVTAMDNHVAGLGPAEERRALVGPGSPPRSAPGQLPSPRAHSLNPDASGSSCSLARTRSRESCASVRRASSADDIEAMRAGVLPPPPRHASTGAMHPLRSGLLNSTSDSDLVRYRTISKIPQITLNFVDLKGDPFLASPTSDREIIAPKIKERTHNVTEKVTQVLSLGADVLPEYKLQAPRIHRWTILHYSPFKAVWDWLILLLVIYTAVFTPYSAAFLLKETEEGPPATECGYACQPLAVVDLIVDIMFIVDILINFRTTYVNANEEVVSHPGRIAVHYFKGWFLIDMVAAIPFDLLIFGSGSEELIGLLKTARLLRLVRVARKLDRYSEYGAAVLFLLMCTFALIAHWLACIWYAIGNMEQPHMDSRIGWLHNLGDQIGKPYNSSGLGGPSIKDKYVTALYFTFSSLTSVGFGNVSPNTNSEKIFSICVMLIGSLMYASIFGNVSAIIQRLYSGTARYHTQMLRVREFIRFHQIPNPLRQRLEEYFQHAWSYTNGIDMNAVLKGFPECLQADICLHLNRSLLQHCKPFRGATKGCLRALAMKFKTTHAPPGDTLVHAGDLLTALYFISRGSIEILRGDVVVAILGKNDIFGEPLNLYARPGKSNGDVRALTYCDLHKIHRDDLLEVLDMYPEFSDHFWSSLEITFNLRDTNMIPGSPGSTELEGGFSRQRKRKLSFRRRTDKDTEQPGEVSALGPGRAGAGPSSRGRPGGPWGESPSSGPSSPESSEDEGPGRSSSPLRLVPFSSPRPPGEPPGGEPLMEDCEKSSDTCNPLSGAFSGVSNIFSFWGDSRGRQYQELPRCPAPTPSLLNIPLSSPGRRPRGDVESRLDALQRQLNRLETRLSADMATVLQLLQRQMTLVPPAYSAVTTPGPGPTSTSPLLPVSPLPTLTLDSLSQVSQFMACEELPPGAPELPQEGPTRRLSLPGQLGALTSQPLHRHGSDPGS

[10] = target: Cav1.2 (Homo sapiens, UniProt Q13936); experiment: Inhibition of human Cav1.2 expressed in HEK293 cells at 30 uM by automated electrophysiology QPatch HT assay; assay type: toxicity, cell-based; conditions: HEK293 cells expressing Cav1.2
Sequence of Cav1.2 (Q13936 whole entry): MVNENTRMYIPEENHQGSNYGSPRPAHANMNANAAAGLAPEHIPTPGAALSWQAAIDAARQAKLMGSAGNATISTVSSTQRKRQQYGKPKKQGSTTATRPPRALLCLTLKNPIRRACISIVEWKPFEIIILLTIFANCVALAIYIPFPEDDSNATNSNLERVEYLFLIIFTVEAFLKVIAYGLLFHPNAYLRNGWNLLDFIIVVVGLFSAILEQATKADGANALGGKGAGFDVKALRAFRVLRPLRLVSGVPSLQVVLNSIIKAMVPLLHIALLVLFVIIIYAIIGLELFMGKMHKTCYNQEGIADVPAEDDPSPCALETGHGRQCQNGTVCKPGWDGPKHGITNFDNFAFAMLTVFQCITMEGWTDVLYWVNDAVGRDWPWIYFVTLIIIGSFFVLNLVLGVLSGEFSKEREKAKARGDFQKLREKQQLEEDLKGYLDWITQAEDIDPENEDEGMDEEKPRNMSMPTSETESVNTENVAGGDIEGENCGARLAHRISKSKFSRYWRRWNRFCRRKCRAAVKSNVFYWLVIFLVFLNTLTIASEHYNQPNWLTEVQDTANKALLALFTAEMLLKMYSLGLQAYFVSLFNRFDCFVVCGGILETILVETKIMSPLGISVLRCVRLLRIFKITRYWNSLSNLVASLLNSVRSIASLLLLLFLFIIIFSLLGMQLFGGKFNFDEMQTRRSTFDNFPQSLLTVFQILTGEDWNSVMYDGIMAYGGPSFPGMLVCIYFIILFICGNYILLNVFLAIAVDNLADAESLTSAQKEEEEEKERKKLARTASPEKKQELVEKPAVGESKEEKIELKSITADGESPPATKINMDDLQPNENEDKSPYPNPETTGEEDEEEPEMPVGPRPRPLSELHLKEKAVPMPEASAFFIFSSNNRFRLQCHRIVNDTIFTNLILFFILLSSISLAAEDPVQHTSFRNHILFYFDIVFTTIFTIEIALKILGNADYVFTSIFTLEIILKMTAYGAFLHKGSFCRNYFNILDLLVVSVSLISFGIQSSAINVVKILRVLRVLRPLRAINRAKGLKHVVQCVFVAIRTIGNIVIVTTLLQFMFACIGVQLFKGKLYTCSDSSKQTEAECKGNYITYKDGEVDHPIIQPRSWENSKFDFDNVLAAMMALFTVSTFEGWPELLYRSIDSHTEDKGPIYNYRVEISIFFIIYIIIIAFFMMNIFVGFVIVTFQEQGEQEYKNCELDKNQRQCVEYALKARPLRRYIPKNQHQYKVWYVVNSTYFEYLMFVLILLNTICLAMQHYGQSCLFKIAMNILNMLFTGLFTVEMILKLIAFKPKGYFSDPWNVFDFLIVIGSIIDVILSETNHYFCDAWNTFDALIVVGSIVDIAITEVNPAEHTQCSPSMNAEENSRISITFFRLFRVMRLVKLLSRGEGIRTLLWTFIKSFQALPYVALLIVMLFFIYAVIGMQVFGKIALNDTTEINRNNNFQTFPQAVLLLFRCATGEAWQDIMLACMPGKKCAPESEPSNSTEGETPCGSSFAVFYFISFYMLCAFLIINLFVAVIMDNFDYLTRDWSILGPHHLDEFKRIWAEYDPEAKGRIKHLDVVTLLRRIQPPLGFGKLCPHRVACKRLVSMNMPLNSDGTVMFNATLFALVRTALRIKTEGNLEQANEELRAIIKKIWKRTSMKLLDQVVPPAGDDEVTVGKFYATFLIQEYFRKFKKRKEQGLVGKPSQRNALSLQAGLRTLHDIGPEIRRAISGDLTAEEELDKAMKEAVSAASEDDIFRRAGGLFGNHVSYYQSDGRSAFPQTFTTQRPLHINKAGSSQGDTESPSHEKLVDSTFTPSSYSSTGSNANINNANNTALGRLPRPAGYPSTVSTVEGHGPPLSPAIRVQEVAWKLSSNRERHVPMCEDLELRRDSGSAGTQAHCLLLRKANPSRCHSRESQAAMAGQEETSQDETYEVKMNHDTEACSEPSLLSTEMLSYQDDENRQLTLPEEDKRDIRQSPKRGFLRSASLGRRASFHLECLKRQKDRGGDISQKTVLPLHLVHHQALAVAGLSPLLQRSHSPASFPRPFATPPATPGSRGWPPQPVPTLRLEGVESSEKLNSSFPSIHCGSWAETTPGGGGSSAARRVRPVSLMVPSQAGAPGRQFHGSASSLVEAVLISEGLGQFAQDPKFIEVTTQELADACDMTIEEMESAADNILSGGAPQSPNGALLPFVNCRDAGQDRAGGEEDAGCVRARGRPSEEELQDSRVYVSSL

[11] = tested on: Mus musculus; experiment: In vivo inhibition of GCS activity in po dosed C57BL/6J mouse assessed as reduction in GlcCer level in plasma measured after 6 hrs; assay type: functional, organism-based; conditions: dose 30-300 mg/kg
[12] = target: Sodium-dependent serotonin transporter (Homo sapiens, UniProt P31645); experiment: Inhibition of human SERT; assay type: toxicity
Sequence of Sodium-dependent serotonin transporter (P31645 whole entry): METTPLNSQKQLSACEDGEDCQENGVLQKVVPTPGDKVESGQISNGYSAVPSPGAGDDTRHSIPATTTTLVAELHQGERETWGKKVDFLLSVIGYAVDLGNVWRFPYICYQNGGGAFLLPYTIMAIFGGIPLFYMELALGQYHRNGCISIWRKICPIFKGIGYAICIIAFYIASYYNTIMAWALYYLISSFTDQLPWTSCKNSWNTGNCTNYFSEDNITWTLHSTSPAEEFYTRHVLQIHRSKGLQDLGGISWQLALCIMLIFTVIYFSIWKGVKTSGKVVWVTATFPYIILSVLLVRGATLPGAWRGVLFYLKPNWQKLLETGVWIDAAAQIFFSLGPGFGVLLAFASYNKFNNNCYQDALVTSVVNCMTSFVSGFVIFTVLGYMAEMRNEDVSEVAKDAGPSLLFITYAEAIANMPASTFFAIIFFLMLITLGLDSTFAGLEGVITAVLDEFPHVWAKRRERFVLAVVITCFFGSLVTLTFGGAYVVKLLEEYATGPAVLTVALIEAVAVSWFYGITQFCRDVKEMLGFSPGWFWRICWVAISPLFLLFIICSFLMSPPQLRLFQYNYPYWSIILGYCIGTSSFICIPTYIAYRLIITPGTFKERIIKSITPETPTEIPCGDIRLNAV

[13] = target: Ceramide glucosyltransferase (Homo sapiens, UniProt Q16739); experiment: Inhibition of GCS in GBA mutant human fibroblasts assessed as reduction in glucosylceramide level incubated for 4 days by RapdiFire-MS/MS analysis; assay type: cell-based; conditions: fibroblast
Sequence of Ceramide glucosyltransferase (Q16739 whole entry, looked up, change not shown): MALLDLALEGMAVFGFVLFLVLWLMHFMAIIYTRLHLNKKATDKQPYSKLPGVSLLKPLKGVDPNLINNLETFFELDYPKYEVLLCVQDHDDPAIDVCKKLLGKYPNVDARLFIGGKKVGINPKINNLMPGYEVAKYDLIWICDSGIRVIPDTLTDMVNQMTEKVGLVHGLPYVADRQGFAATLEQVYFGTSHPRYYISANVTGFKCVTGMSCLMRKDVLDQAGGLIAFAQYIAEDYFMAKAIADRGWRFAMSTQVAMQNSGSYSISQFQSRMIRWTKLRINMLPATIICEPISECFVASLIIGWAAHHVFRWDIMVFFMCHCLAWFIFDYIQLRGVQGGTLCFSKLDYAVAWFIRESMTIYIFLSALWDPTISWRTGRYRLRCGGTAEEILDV

[14] = Oral bioavailability in non-fasted ICR mouse at 5 mg/kg by LC-MS/MS analysis; assay type: ADME, organism-based; conditions: in vivo
[15] = Selectivity index, ratio of IC50 for mouse GCS to IC50 for human GCS
[16] = target: T2, Lysosomal acid glucosylceramidase (Homo sapiens, UniProt P04062); experiment: Inhibition of human recombinant GCase using 4-methylumbelliferyl beta-D-glucopyranoside as substrate incubated for 20 mins by fluorescence-based analysis
T2 sequence (P04062 whole entry): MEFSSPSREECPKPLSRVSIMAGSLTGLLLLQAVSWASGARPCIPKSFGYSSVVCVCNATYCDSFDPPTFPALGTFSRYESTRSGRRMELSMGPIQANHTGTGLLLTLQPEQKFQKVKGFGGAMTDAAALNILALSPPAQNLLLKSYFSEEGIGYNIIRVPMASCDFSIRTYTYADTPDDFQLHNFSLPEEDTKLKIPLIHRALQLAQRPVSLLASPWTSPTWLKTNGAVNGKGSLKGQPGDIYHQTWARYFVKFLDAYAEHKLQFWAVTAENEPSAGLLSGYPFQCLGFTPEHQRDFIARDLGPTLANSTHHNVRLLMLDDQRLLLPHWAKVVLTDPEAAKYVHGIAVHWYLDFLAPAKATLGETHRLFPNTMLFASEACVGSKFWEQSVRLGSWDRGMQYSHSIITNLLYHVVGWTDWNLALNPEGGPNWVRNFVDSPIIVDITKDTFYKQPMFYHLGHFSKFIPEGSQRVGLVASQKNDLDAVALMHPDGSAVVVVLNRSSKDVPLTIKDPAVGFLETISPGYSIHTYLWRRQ

[17] = Toxicity in Sprague-Dawley rat assessed as change in body weight at 30 to 300 mg/kg, po administered once daily for 3 days; assay type: organism-based; conditions: in vivo, 72 h, dose 30-300 mg/kg, time 3 day

- microsomal CLint at 1 µM [1]: 1 µL/min/mg
- inhibition at 10 min, 10 µM [2]: 34.2%
- inhibition at 10 min, 10 µM [3]: 24.9%
- inhibition at 10 min, 10 µM [4]: 15.6%
- MRT [5]: 1.03 h
- Cmax [6]: 416 ng/mL
- MRT [7]: 1.91 h
- Kp uu at 1 h [8]: 0.26
- EC50 [13]: 0.0044 µM
- bioavailability [14]: 31%
- Ratio IC50 [15]: 12.7
- EC50 [16]: > 300 µM
SMILES: CC(C)(O)c1ccc(NC(=O)c2ccnn(-c3ccccc3OCC(F)(F)F)c2=O)cc1
- inhibition at 30 µM [9]: 8%
- inhibition at 30 µM [10]: 7.3%
- inhibition [11]: Dose-Dependent Effect
- IC50 [12]: > 10 µM
- Activity [17]: Non-Toxic

From ChEMBL document CHEMBL5046282, “Discovery of Brain-Penetrant Glucosylceramide Synthase Inhibitors with a Novel Pharmacophore” (J Med Chem, 2022)
